According to US8791132B2, “Compounds and methods for treatment of hypertension” (Medivation Technologies, Inc., priority 2011, dated 2014):

What was measured:
[1] = molecular target: T1, human recombinant adrenergic α2B receptor (Homo sapiens, UniProt P18089); assay: Radioligand binding, adrenergic α2B ([3H]Rauwolscine); settings: 0.03 μM compound; for inhibition at 0.03 µM: read-out: Percentage inhibition of ligand binding, Adrenergic α2B; for Percentage inhibition of ligand binding, Adrenergic α2B: 0.03 µM
T1 construct: expressed in transfected cells; host or cells: CHO-K1
T1 sequence (P18089 1-450): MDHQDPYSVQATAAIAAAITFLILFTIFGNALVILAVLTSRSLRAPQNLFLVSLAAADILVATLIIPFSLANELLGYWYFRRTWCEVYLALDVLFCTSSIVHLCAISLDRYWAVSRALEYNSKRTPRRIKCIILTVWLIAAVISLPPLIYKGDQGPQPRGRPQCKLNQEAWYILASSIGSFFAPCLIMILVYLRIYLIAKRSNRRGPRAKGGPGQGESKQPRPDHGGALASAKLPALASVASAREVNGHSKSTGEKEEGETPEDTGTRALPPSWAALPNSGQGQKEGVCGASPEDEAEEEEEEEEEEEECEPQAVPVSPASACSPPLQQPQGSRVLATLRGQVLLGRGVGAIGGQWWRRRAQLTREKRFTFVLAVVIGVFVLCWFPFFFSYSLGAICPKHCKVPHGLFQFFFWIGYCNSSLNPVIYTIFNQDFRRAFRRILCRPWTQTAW
Summary of the method: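 Receptor expressed in CHO-K1 cells, assayed in 50 mM Tris-HCl pH 7.4 with 12.5 mM MgCl2, 1 mM EDTA and 0.2% BSA. Compounds were incubated with 2.5 nM [3H]Rauwolscine for 60 min at 25° C; 10 μM Prazosin defined non-specific binding. Filter counting gave percent inhibition of specific binding.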

[2] = molecular target: T2, human recombinant adrenergic α2A receptor (Homo sapiens, UniProt P08913); assay: Radioligand binding, adrenergic α2A ([3H]MK-912); settings: 0.1 μM compound; for inhibition at 0.1 µM: read-out: Percentage inhibition of ligand binding, Adrenergic α2A; for Percentage inhibition of ligand binding, Adrenergic α2A: 0.1 µM
T2 construct: expressed in transfected cells; host or cells: insect Sf9 cells
T2 sequence (P08913 1-465): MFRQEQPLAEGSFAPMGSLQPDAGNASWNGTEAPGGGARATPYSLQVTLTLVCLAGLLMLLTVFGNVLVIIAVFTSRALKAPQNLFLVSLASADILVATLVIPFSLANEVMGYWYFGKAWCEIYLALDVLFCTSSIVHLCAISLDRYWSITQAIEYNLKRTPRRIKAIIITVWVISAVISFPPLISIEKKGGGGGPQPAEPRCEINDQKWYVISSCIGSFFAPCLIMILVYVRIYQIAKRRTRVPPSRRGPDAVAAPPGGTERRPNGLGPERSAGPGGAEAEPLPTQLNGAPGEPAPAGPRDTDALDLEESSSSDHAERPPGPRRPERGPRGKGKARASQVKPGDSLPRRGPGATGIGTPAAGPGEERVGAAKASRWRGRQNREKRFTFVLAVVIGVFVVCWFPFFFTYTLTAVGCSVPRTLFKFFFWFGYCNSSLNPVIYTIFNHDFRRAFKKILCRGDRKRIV
Summary of the method: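 Sf9 membranes, 1 nM [3H]MK-912, 60 min, 25 °C, Tris-HCl pH 7.4/MgCl2/EDTA buffer. NSB: 10 μM WB-4101. Filtration, counting; % inhibition of specific binding.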

[3] = molecular target: T3, rat adrenergic α1B receptor (Rattus norvegicus, UniProt P15823); assay: Radioligand binding, adrenergic α1B ([3H]Prazosin); settings: 0.1 μM compound; for inhibition at 0.1 µM: read-out: Percentage inhibition of ligand binding, Adrenergic α1B; for Percentage inhibition of ligand binding, Adrenergic α1B: 0.1 µM
T3 construct: rat adrenergic α1B receptor obtained from Wistar Rat liver; from tissue; host or cells: Wistar rat liver
T3 sequence (P15823 1-515): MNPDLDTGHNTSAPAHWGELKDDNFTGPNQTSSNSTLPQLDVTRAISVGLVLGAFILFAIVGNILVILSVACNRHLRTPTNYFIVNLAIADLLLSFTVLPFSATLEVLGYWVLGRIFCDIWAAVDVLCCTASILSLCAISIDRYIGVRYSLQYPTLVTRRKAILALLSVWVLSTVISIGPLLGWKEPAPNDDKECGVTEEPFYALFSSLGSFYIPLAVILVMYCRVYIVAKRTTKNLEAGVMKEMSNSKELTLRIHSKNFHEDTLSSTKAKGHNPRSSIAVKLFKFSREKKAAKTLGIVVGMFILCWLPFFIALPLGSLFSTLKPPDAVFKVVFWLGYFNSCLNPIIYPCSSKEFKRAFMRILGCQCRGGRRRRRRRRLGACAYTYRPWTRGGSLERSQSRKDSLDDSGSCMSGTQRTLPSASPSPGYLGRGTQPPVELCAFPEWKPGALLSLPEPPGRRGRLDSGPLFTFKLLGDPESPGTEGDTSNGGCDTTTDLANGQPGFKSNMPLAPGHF
Summary of the method: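 Rat α1B receptor from Wistar rat liver was incubated with 0.25 nM [3H]prazosin for 60 min at 25 °C in 50 mM Tris-HCl, pH 7.4, 0.5 mM EDTA. Non-specific binding was defined with 10 μM phentolamine. Bound radioligand was measured by filtration and counting, reported as percent inhibition of specific binding.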

Structure (SMILES) | inhibition at 0.03 µM [1] | inhibition at 0.1 µM [2] | inhibition at 0.1 µM [3] | Percentage inhibition of ligand binding, Adrenergic α2B [1] | Percentage inhibition of ligand binding, Adrenergic α2A [2] | Percentage inhibition of ligand binding, Adrenergic α1B [3]
Cc1ccc2c(c1)c1c(n2CC(NC(C)C)c2ccncc2)CCN(C)C1 (stereo not drawn) [II-10, [2-(2,8-dimethyl-1,2,3,4-tetrahydro-pyrido[4,3-b]indol-5-yl)-1-pyridin-4-yl-ethyl]-isopropyl-amine] | 47% | 10% | 7% | – | – | –
Cc1ccc2c(c1)c1c(n2CC(N)c2ccc(F)cc2)CCN(C)C1 (stereo not drawn) [II-11, 2-(2,8-dimethyl-3,4-dihydro-1H-pyrido[4,3-b]indol-5(2H)-yl)-1-(4-fluorophenyl)ethanamine] | – | – | – | 70% | 25% | 63%
CNC(Cn1c2c(c3cc(C)ccc31)CN(C)CC2)c1ccc(F)cc1 (stereo not drawn) [II-12, 2-(2,8-dimethyl-3,4-dihydro-1H-pyrido[4,3-b]indol-5(2H)-yl)-1-(4-fluorophenyl)-N-methyl ethanamine] | – | – | – | 65% | 11% | 18%
Cc1ccc2c(c1)c1c(n2CC(NC2CCC2)c2ccncc2)CCN(C)C1 (stereo not drawn) [II-13, cyclobutyl-[2-(2,8-dimethyl-1,2,3,4-tetrahydro-pyrido[4,3-b]indol-5-yl)-1-pyridin-4-yl-ethyl]-amine] | 73% | 9% | 9% | – | – | –
Cc1ccc2c(c1)c1c(n2CC(C)(OC(=O)C(C)(C)C)c2cccnc2)CCN(C)C1 (stereo not drawn) [II-16a, 2,2-dimethyl-propionic acid 2-(2,8-dimethyl-1,2,3,4-tetrahydro-pyrido[4,3-b]indol-5-yl)-1-methyl-1-pyridin-3-yl-ethyl ester] | 39% | 11% | 20% | – | – | –
Cc1ccc2c(n1)c1c(n2CC(C)(O)c2cccnc2)CCN2CCCC12 (stereo not drawn) [II-17] | 7% | 4% | 8% | – | – | –
Cc1ccc2c(c1)c1c(n2CC(C)(OC(=O)c2ccncc2)c2cccnc2)CCN(C)C1 (stereo not drawn) [II-19] | 21% | 8% | 8% | – | – | –
CN1CCc2c(c3cc(CO)ccc3n2CC(O)c2ccncc2)C1 (stereo not drawn) [II-60, 2-(8-hydroxymethyl-2-methyl-1,2,3,4-tetrahydro-pyrido[4,3-b]indol-5-yl)-1-pyridin-4-yl-ethanol] | 54% | 9% | 11% | – | – | –
CC(O)(Cn1c2c(c3cc(Cl)ccc31)CNCC2)c1ccncc1 (stereo not drawn) [II-62, 1-(8-chloro-1,2,3,4-tetrahydro-pyrido[4,3-b]indol-5-yl)-2-pyridin-4-yl-propan-2-ol] | 37% | 5% | 14% | – | – | –
C=CCN1CCc2c(c3cc(C)ccc3n2CC(O)c2ccncc2)C1 (stereo not drawn) [II-63, 2-(2-allyl-1,2,3,4-tetrahydro-8-methylpyrido[4,3-b]indol-5-yl)-1-(pyridin-4-yl)ethanol] | 90% | 39% | 55% | – | – | –
Cc1ccc2c(c1)c1c(n2CC(O)c2ccncc2)CCN(CCO)C1 (stereo not drawn) [II-64, 2-[2-(2-hydroxy-ethyl)-8-methyl-1,2,3,4-tetrahydro-pyrido[4,3-b]indol-5-yl]-1-pyridin-4-yl-ethanol] | 54% | -3% | 23% | – | – | –
Cc1ccc2c(c1)c1c(n2CC(O)c2ccncc2)CCN(CC(=O)O)C1 (stereo not drawn) [II-65, [5-(2-hydroxy-2-pyridin-4-yl-ethyl)-8-methyl-1,3,4,5-tetrahydro-pyrido[4,3-b]indol-2-yl]-acetic acid] | 25% | 12% | 10% | – | – | –
CN1C2CCC1c1c(n(CC(O)c3ccncc3)c3ccc(Cl)cc13)C2 (stereo not drawn) [II-66] | 46% | 0% | 27% | – | – | –
CN1CCc2c(c3cc(OC(F)(F)F)ccc3n2CC(O)c2ccncc2)C1 (stereo not drawn) [II-67, 2-(2-methyl-8-trifluoromethoxy-1,2,3,4-tetrahydro-pyrido[4,3-b]indol-5-yl)-1-pyridin-4-yl-ethanol] | 43% | -11% | 7% | – | – | –
CN1CCc2c(c3cc(C(C)(C)C)ccc3n2CC(O)c2ccncc2)C1 (stereo not drawn) [II-68, 2-(8-tert-butyl-2-methyl-1,2,3,4-tetrahydro-pyrido[4,3-b]indol-5-yl)-1-pyridin-4-yl-ethanol] | 17% | 5% | 12% | – | – | –
Cc1ccc2c(c1)c1c(n2CC(O)c2ccncc2)CN2CCC1C2 (stereo not drawn) [II-69] | 14% | 11% | 45% | – | – | –
CC1c2c(c3cc(Cl)ccc3n2CC(O)c2ccncc2)CCN1C (stereo not drawn) [II-72] | 47% | 25% | 30% | – | – | –
Cc1ccc2c(c1)c1c(n2CC(O)c2ccncc2)C(C)N(C)CC1 (stereo not drawn) [II-73] | 33% | 28% | 34% | – | – | –
CCC1c2c(c3cc(C)ccc3n2CC(O)c2ccncc2)CCN1C (stereo not drawn) [II-74] | 18% | 10% | 11% | – | – | –
Cc1ccc2c(c1)c1c(n2CC(O)c2ccncc2)CCN(CCCO)C1 (stereo not drawn) [II-75, 3-(3,4-dihydro-5-(2-hydroxy-2-(pyridin-4-yl)ethyl)-8-methyl-1H-pyrido[4,3-b]indol-2(5H)-yl)propan-1-ol] | 35% | 15% | 8% | – | – | –
CN1CCc2c(c3cccnc3n2CC(O)c2ccncc2)C1 (stereo not drawn) [II-78] | -9% | 1% | -11% | – | – | –
OC(Cn1c2c(c3cccnc31)C1CCCN1CC2)c1ccncc1 (stereo not drawn) [II-79] | 59% | 0% | 7% | – | – | –
Cc1ccc2c(c1)c1c(n2CC(C)(O)c2ccc(O)nc2)CCN(C)C1 (stereo not drawn) [II-80, 5-[2-(2,8-dimethyl-1,2,3,4-tetrahydro-pyrido[4,3-b]indol-5-yl)-1-hydroxy-1-methyl-ethyl]-pyridin-2-ol] | 9% | 3% | 4% | – | – | –
OCc1ccc2c(c1)c1c(n2CC(O)c2ccncc2)CCNC1 (stereo not drawn) [II-81, 2-(8-hydroxymethyl-1,2,3,4-tetrahydro-pyrido[4,3-b]indol-5-yl)-1-pyridin-4-yl-ethanol] | -9% | 15% | -1% | – | – | –
OC(Cn1c2c(c3ccccc31)C1CCC(C2)N1)c1ccncc1 (stereo not drawn) [II-85] | -2% | 15% | -7% | – | – | –
OC(Cn1c2c(c3cc(Cl)cnc31)CN1CCCC1C2)c1ccncc1 (stereo not drawn) [II-86] | 35% | 27% | 44% | – | – | –
CN1CCc2c(n(CC(O)c3cccnc3)c3ccc(Cl)cc23)C1 (stereo not drawn) [II-87] | 24% | 1% | 11% | – | – | –
